Experimental data reported in US20190343828A1, “CAMPTOTHECIN PEPTIDE CONJUGATES” (SEATTLE GENETICS, INC., priority 2018, published 2019).

Columns and labels:
[1] = system: B-lymphocyte cancer cells (U266); assay: In vitro cytotoxicity, CellTiter-Glo 96 h, U266; settings: Homo sapiens, U-266, read-out: Cytotoxic potency as free drug, IC50, U266
Protocol: (§1) In vitro potency was assessed on multiple cancer cell lines. All cell lines were authenticated by STR profiling at IDEXX Bioresearch and cultured for no more than 2 months after resuscitation. Cells cultured in log-phase growth were seeded for 24 hours in 96-well plates containing 150 μl RPMI 1640 supplemented with 20% FBS. Serial dilutions of antibody-drug conjugates in cell culture media were prepared at 4× working concentrations, and 50 μl of each dilution was added to the 96-well plates. Following addition of test articles, cells were incubated with test articles for 4 days at 37° C. After 96 hours, growth inhibition was assessed by CellTiter-Glo® (Promega, Madison, Wis.) and luminescence was measured on a plate reader.
(§2) Cell viability was determined by CellTiter-Glo staining after 96 h exposure to ADC. […] Ag1 is an antibody targeting a ubiquitous and readily internalizable antigen on cancer cells, Ag2 is cAC10 antibody targeting CD30(+) cancer cells, Ag3 is h1F6 antibody targeting CD70(+) cancer cells, Ag4 is hMEM102 antibody targeting CD48(+) cancer cells, Ag5 is h20F3 antibody targeting NTB-A expressing cancer cells, and h00 is a non-binding control antibody.

[2] = system: renal carcinoma cells (786-O); assay: In vitro cytotoxicity, CellTiter-Glo 96 h, 786-O; settings: Homo sapiens, 786-0, read-out: Cytotoxic potency (IC50 class), 786-O
Protocol: as §1
(§3) Cell viability was determined by CellTiter-Glo staining after 96 h exposure to ADC.

[3] = system: pancreatic cancer cells (BxPC3); assay: In vitro cytotoxicity, CellTiter-Glo 96 h, BxPC3; settings: Homo sapiens, BXPC-3, read-out: Cytotoxic potency (IC50 class), BxPC3
Protocol: as §1, §3

[4] = system: acute promyelocytic leukemia cells (HL-60); assay: In vitro cytotoxicity, CellTiter-Glo 96 h, HL-60; settings: Homo sapiens, HL-60, read-out: Cytotoxic potency (IC50 class), HL-60
Protocol: as §1, §2

[5] = system: multiple myeloma cells (MM.1R); assay: In vitro cytotoxicity, CellTiter-Glo 96 h, MM.1R; settings: read-out: Cytotoxic potency (IC50 class), MM.1R
[6] = system: Burkitt's lymphoma cells (Ramos); assay: In vitro cytotoxicity, CellTiter-Glo 96 h, Ramos; settings: Homo sapiens, read-out: Cytotoxic potency as free drug, IC50, Ramos
Protocol: as §1, §3

[7] = system: Hodgkin's lymphoma cells (L540cy); assay: In vitro cytotoxicity, CellTiter-Glo 96 h, L540cy; settings: read-out: Cytotoxic potency (IC50 class), L540cy
[8] = system: acute myeloid leukemia cells (MOLM13); assay: In vitro cytotoxicity, CellTiter-Glo 96 h, MOLM13; settings: Homo sapiens, MOLM-13, read-out: Cytotoxic potency as free drug, IC50, MOLM13
[9] = system: multiple drug resistant acute promyelocytic leukemia cells (HL-60/RV); assay: In vitro cytotoxicity, CellTiter-Glo 96 h, HL60/RV; settings: Homo sapiens, HL-60, read-out: Cytotoxic potency (IC50 class), HL60/RV
Protocol: as §1, §3

[10] = system: melanoma cells (SK-MEL-5); assay: In vitro cytotoxicity, CellTiter-Glo 96 h, SK-MEL-5; settings: Homo sapiens, SK-MEL-5, read-out: Cytotoxic potency as free drug, IC50, SK-MEL-5
Protocol: as §1, §2

[11] = system: B-lymphocyte cancer cells (SU-DHL-4); assay: In vitro cytotoxicity, CellTiter-Glo 96 h, SU-DHL-4; settings: Homo sapiens, SU-DHL-4, read-out: Cytotoxic potency as free drug, IC50, SU-DHL-4
Protocol: as §1, §2

| Compound | IC50 [1] [nM] | IC50 [2] [nM] | IC50 [3] [nM] | IC50 [4] [nM] | IC50 [5] [nM] | IC50 [6] [nM] | IC50 [7] [nM] | IC50 [8] [nM] | IC50 [9] [nM] | IC50 [10] [nM] | IC50 [11] [nM] |
| --- | --- | --- | --- | --- | --- | --- | --- | --- | --- | --- | --- |
| CC[C@@]1(O)C(=O)OCc2c1cc1n(c2=O)Cc2c-1nc1cc3c(cc1c2CC(C)C)OCO3 [Compound 6f] | 1 to 10 | 1 to 10 | 1 to 10 | 10 to 100 | 1 to 10 | 1 to 10 | 1 to 10 | 1 to 10 | 1 to 10 | 1 to 10 | 1 to 10 |
| CC[C@@]1(O)C(=O)OCc2c1cc1n(c2=O)Cc2c-1nc1cc3c(cc1c2CN(C)CCN(C)C)OCO3 [Compound 5t] | 10 to 100 | 1 to 10 | 10 to 100 | 100 to 1000 | 1 to 10 | 1 to 10 | 1 to 10 | 10 to 100 | 10 to 100 | 10 to 100 | 1 to 10 |
| CCCCCCc1c2c(nc3cc4c(cc13)OCO4)-c1cc3c(c(=O)n1C2)COC(=O)[C@]3(O)CC [Compound 6k] | 1 to 10 | 1 to 10 | 1 to 10 | 100 to 1000 | 1 to 10 | 0.1 to 1 | 1 to 10 | 10 to 100 | 10 to 100 | 1 to 10 | 1 to 10 |
| CC[C@@]1(O)C(=O)OCc2c1cc1n(c2=O)Cc2c-1nc1cc3c(cc1c2CNCc1ccc(OC)cc1)OCO3 [Compound 5l] | 10 to 100 | 10 to 100 | 10 to 100 | 10 to 100 | 1 to 10 | 1 to 10 | 10 to 100 | 1 to 10 | 10 to 100 | 10 to 100 | 1 to 10 |
| CC[C@@]1(O)C(=O)OCc2c1cc1n(c2=O)Cc2c-1nc1cc3c(cc1c2CNCCc1ccccc1)OCO3 [Compound 5z] | 10 to 100 | 1 to 10 | 10 to 100 | 10 to 100 | 1 to 10 | 1 to 10 | 1 to 10 | 10 to 100 | 10 to 100 | 10 to 100 | 1 to 10 |
| CC[C@@]1(O)C(=O)OCc2c1cc1n(c2=O)Cc2c-1nc1cc3c(cc1c2CNCCN(C)CCO)OCO3 [Compound 5w] | 10 to 100 | 10 to 100 | 10 to 100 | 100 to 1000 | 10 to 100 | 1 to 10 | 10 to 100 | 10 to 100 | 10 to 100 | 10 to 100 | 10 to 100 |
| CC[C@@]1(O)C(=O)OCc2c1cc1n(c2=O)Cc2c-1nc1cc3c(cc1c2CNc1ccccc1)OCO3 [Compound 5b] | 1 to 10 | 1 to 10 | 1 to 10 | 10 to 100 | 1 to 10 | 0.1 to 1 | 0.1 to 1 | 10 to 100 | 1 to 10 | 1 to 10 | 0.1 to 1 |
| CC[C@@]1(O)C(=O)OCc2c1cc1n(c2=O)Cc2c-1nc1cc3c(cc1c2CNCCCCO)OCO3 [Compound 5f] | 1 to 10 | 1 to 10 | 10 to 100 | 10 to 100 | 1 to 10 | 1 to 10 | 1 to 10 | 1 to 10 | 100 to 1000 | 1 to 10 | 1 to 10 |
| CC[C@@]1(O)C(=O)OCc2c1cc1n(c2=O)Cc2c-1nc1cc3c(cc1c2CNc1ccc(F)cc1)OCO3 [Compound 5r] | 1 to 10 | 1 to 10 | 1 to 10 | 10 to 100 | 1 to 10 | 1 to 10 | 1 to 10 | 10 to 100 | 10 to 100 | 1 to 10 | 1 to 10 |
| CC[C@@]1(O)C(=O)OCc2c1cc1n(c2=O)Cc2cc3cc4c(cc3nc2-1)OCO4 [Compound 6o] | 1 to 10 | 1 to 10 | 1 to 10 | 100 to 1000 | 1 to 10 | 0.1 to 1 | 1 to 10 | 10 to 100 | 10 to 100 | 1 to 10 | 1 to 10 |
| CC[C@@]1(O)C(=O)OCc2c1cc1n(c2=O)Cc2c-1nc1cc3c(cc1c2CN1CCN(C)CC1)OCO3 [Compound 5h] | 10 to 100 | 1 to 10 | 10 to 100 | 10 to 100 | 1 to 10 | 1 to 10 | 1 to 10 | 1 to 10 | 10 to 100 | 10 to 100 | 1 to 10 |
